Results as given in PMC7694773, “Synthesis, 3D-QSAR, and Molecular Modeling Studies of Triazole Bearing Compounds as a Promising Scaffold for Cyclooxygenase-2 Inhibition” (Pharmaceuticals, 2020).
pIC50: −log10 of the molar value. Values joined by “and” are separate entries in the source; they are usually repeats but may differ in a detail not shown here. Equal entries are not always repeated. Where two headings read alike, the source gives them in different places.

How the values were obtained:
[1] = target: T1, human recombinant COX-2 (Homo sapiens, UniProt P35354); test: In vitro COX-2 inhibition, enzyme immunoassay kit (Cayman item no. 560131); assay type: biochemical; conditions: for pIC50: human recombinant COX-2, mean of two determinations, read-out: IC50 COX-2; for IC50: pIC50 = −Log (IC50) of the COX-2 IC50, read-out: Activity (experimental pIC50, COX-2) (converted)
T1 construct: purchased Cayman Chemical 560131
T1 sequence (P35354 18-604): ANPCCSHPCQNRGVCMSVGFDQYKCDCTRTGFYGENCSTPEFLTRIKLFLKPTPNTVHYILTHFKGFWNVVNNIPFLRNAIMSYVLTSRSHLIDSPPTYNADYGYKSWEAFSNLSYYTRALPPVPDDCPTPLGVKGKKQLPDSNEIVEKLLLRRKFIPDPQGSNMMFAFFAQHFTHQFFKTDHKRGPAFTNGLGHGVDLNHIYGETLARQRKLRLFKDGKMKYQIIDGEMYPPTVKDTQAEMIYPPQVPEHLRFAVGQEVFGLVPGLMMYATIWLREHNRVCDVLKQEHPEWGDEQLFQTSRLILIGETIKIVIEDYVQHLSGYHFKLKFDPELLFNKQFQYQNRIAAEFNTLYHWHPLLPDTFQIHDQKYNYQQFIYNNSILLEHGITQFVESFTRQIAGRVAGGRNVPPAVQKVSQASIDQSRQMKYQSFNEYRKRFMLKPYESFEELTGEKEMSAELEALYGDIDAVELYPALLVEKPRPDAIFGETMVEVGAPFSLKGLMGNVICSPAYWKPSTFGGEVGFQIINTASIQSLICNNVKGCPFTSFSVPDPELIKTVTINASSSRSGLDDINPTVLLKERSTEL
Text: (§1) The in vitro COX-1/COX-2 isozyme inhibition studies measure the ability of tested compounds to inhibit bovine COX-1 and human recombinant COX-2 using an enzyme immunoassay (COX inhibitor screening assay kit, item no. 560131) according to the manufacturer’s instructions. […].

[2] = target: T2, bovine COX-1 (Ovis aries, UniProt P05979); test: In vitro COX-1 inhibition, enzyme immunoassay kit (Cayman item no. 560131); assay type: biochemical; conditions: mean of two determinations
T2 construct: purchased Cayman Chemical 560131
T2 sequence (P05979 25-600): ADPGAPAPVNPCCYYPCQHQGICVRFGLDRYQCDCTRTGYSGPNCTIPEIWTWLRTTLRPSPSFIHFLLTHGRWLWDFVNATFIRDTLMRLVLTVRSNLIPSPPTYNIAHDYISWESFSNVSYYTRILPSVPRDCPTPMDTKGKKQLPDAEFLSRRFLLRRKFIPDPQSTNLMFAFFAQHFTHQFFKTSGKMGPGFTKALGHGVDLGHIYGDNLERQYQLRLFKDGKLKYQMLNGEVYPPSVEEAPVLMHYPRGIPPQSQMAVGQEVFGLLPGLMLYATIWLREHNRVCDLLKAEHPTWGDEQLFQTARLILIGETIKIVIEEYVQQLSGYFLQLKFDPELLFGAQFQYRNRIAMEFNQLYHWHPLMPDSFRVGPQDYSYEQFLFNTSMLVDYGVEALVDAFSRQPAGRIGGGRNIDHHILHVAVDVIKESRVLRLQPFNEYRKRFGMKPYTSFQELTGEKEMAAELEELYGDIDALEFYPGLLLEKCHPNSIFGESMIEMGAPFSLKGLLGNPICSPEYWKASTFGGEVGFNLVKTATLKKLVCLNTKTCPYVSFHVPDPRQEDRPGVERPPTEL
Text: as §1

[3] = target: T3, egg albumin (Gallus gallus, UniProt P01012); test: In situ anti-inflammatory assay: inhibition of protein (albumin) denaturation; conditions: protein denaturation, three replicates
T3 sequence (P01012 1-386): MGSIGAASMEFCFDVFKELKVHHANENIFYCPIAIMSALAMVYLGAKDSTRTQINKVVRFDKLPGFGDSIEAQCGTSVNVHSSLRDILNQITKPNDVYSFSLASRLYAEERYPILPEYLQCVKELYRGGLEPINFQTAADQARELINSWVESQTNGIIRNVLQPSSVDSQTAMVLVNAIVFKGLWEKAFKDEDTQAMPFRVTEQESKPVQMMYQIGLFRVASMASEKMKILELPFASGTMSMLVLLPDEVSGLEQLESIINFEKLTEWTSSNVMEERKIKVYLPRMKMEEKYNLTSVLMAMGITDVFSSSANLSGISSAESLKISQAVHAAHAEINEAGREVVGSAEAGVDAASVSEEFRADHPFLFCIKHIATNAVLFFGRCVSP
Procedure: Protein denaturation is used for the evaluation of anti-inflammatory activity. In this methodology, generally, tertiary and secondary protein structures will typically be destroyed by the application of an external molecule or stress. The biological function of most bio-proteins is lost if it is denatured. It is well reported that a basis of inflammation is denaturation of protein.
The reaction mixture is molecules with serial dilutions (1000, 100, 10, 1, 0.1 µM), phosphate buffered saline (PBS; pH 6.4), and egg albumin. The control used was double distilled water (equal volume). […] After attaining ambient temperature, the absorbance of samples was measured spectrophotometrically at 660 nm using vehicle as blank. […] The experiment was performed in triplicate. Percent inhibition of protein denaturation was calculated using the Equation Inhibition (%) of protein denaturation inhibition (%) = (AC − AS)/AC × 100 where AC: absorbance of control, AS: absorbance of sample.

Row | SMILES | melting point | COX-2 S.I. (selectivity index, COX-1 IC50/COX-2 IC50) [1] | pIC50 [1] | IC50 [1] | pIC50 [2] | inhibition at 1000 µM ([3]; conc. 1000 µM, read-out: % of inhibition ± SEM at conc. 1000) | % of inhibition ± SEM at conc. 0.1 ([3]; conc. 0.1 (µM)) | % of inhibition ± SEM at conc. 1 ([3]; conc. 1 (µM)) | % of inhibition ± SEM at conc. 10 ([3]; conc. 10 (µM)) | % of inhibition ± SEM at conc. 100 ([3]; conc. 100 (µM))
1 | Nc1ncc(Sc2nnc(COc3ccc4ccccc4c3)n2N=Cc2ccccc2)s1 [Compound 12a, 5-((4-(benzylideneamino)-5-((naphthalen-2-yloxy)methyl)-4H-1,2,4-triazol-3-yl)thio)thiazol-2-amine] | 145 to 146 °C | 98.3 | 7.00 | 100 nM | 5.01 |  |  |  |  | 
2 | Nc1ncc(Sc2nnc(COc3ccc4ccccc4c3)n2N=Cc2ccccc2)o1 [Compound 11a, 5-((4-(benzylideneamino)-5-((naphthalen-2-yloxy)methyl)-4H-1,2,4-triazol-3-yl)thio)oxazol-2-amine] | 162 to 164 °C | 154.6 | 7.10 | 80 nM | 4.91 |  |  |  |  | 
3 | O=[N+]([O-])c1cccc(C=Nn2c(S)nnc2COc2ccc3ccccc3c2)c1 [Compound 9c, 5-((naphthalen-2-yloxy)methyl)-4-((3-nitrobenzylidene)amino)-4H-1,2,4-triazole-3-thiol] | 200 to 202 °C | 72.5 | 6.89 | 130 nM | 5.03 |  |  |  |  | 
4 | Sc1nnc(COc2ccc3ccccc3c2)n1N=Cc1ccccc1 [Compound 9a, 4-(benzylideneamino)-5-((naphthalen-2-yloxy)methyl)-4H-1,2,4-triazole-3-thiol] | 184 to 186 °C | 31.5 | 6.66 | 220 nM | 5.16 |  |  |  |  | 
5 | Nc1ncc(Sc2nnc(COc3ccc4ccccc4c3)n2N=Cc2ccccc2O)o1 [Compound 11b, 2-(((3-((2-aminooxazol-5-yl)thio)-5-((naphthalen-2-yloxy)methyl)-4H-1,2,4-triazol-4-yl)imino)methyl)phenol] | 80 to 81 °C | 119.2 | 7.05 | 89.9 nM | 4.97 |  |  |  |  | 
6 | Nc1ncc(Sc2nnc(COc3ccc4ccccc4c3)n2N=Cc2ccccc2O)s1 [Compound 12b, 2-(((3-((2-aminothiazol-5-yl)thio)-5-((naphthalen-2-yloxy)methyl)-4H-1,2,4-triazol-4-yl)imino)methyl)phenol] | 77 to 78 °C | 202.0 and 202.2 | 7.22 | 60.1 nM | 4.92 |  |  |  |  | 
7 | Oc1ccccc1C=Nn1c(S)nnc1COc1ccc2ccccc2c1 [Compound 9b, 2-(((3-mercapto-5-((naphthalen-2-yloxy)methyl)-4H-1,2,4-triazol-4-yl)imino)methyl)phenol] | 208 to 219 °C | 40.4 | 6.72 | 190 nM | 5.12 |  |  |  |  | 
8 | O=C(O)Cc1ccccc1Nc1c(Cl)cccc1Cl [Diclofenac sodium, reference compound] |  |  |  |  |  | 94.2% | 32.14±1.01% | 61.45±1.21% | 67.32±0.95% | 82.43±1.87%
